Measured values published in patent US20180125835A1, “Dosage and Use of an A2A Antagonist” (H. Lundbeck A/S, priority 2014, published 2018).
Read-outs that look alike come from different tables or passages of the source.

Key:
[1] = molecular target: T1, A1 receptor (Homo sapiens, UniProt P30542); assay: Adenosine receptor binding affinity, human A1
T1 sequence (P30542 1-326): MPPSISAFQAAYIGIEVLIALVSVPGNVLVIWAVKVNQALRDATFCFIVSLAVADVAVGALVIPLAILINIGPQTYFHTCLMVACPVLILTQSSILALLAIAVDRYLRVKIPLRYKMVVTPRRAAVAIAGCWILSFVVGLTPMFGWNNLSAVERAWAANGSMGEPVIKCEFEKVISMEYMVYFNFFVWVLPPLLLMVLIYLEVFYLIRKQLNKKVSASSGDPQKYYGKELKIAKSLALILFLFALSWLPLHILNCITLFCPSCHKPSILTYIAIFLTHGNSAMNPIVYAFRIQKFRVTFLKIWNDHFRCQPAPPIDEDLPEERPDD

[2] = molecular target: T2, A2B (Homo sapiens, UniProt P29275); assay: Adenosine receptor binding affinity, human A2B
T2 sequence (P29275 1-332): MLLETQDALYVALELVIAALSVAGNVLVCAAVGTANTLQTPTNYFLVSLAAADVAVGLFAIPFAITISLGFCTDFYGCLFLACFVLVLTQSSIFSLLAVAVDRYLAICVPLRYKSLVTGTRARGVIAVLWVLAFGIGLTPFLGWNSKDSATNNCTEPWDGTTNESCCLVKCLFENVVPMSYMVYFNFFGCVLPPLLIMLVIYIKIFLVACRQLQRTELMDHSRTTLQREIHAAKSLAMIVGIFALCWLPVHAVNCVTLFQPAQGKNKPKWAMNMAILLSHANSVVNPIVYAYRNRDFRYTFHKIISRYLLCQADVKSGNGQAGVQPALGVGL

[3] = molecular target: A2A receptor (Callithrix jacchus, UniProt A0A8I3X4X6); assay: Adenosine receptor binding affinity, marmoset A2A
Chain of A2A receptor (Callithrix jacchus, UniProt A0A8I3X4X6) (A0A8I3X4X6 1-410): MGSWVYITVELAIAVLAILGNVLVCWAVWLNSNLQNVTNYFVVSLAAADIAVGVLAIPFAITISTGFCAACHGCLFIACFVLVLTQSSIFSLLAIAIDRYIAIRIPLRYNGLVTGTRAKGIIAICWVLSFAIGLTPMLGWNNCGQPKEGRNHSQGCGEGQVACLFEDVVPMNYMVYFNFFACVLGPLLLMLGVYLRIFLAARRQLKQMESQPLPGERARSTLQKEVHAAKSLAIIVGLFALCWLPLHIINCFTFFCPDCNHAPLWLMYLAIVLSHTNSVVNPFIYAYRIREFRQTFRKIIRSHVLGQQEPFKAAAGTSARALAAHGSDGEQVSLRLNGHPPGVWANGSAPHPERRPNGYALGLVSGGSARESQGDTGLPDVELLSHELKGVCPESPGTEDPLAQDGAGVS

[4] = molecular target: T3, A1 receptor (Canis lupus familiaris, UniProt P11616); assay: Adenosine receptor binding affinity, dog A1
T3 sequence (P11616 1-326): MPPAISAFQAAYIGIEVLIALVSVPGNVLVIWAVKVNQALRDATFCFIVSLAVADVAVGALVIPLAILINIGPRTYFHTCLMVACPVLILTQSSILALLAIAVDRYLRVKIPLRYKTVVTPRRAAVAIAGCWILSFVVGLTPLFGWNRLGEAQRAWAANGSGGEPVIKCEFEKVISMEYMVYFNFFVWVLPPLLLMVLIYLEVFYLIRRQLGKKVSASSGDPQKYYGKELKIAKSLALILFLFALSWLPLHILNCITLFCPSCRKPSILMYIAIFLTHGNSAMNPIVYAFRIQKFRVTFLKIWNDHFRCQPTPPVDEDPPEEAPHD

[5] = molecular target: A2A receptor (Mus musculus, UniProt Q60613); assay: Adenosine receptor binding affinity, mouse A2A
Chain of A2A receptor (Mus musculus, UniProt Q60613) (Q60613 whole entry): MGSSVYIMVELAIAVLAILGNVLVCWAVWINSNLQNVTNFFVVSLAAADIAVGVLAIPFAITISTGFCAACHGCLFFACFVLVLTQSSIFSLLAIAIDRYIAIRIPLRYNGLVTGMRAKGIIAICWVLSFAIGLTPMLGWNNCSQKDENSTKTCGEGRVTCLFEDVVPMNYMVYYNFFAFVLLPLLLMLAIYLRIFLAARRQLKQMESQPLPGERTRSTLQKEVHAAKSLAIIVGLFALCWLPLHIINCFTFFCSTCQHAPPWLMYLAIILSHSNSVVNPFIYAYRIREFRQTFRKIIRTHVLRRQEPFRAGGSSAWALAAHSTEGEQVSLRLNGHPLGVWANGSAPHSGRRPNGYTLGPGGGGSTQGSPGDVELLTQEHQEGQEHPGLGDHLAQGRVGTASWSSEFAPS

[6] = Safety and tolerability study, single-dose pharmacokinetics (Parts A, B, C); format: in vivo, human; conditions: for intra-subject variability (CV %) for AUC0-inf / intra-subject variability (CV %) for Cmax: across the fasting doses; for half-life / Vd/F / Tmax / AUC(0-inf) / Cmax / AUC(0-t): human, oral; for Vd/F: read-out: Vz/F
Description: (§1) The study was conducted in three parts: Parts A, B, and C.
(§2) Parts A and B were single-dose escalations to determine the safety and tolerability in young healthy men, and in elderly men and women, respectively. Three doses (Cohorts A1 to A3) were tested in healthy young men: 1 mg (N=6), 5 mg (N=6), and 10 mg (N=5); placebo (N=8, total of the three cohorts). […] Two doses (Cohorts B1 and B2) were tested in healthy elderly men and women: 5 mg (N=9 men/4 women), 10 mg (N=4 men/4 women); placebo (N=6 men/4 women, total of the three cohorts). […] A washout period of at least 7 days separated each dose administration.

[7] = Safety and tolerability study, adverse events (Parts A, B, C)
Description: as §1, §2

[8] = both sexes, plasma, 5 mg, Part B, healthy elderly overall, arithmetic mean
[9] = both sexes, plasma, 5 mg, Part C, elderly men and women, Fasting (N = 24)
[10] = both sexes, plasma, 5 mg, Part C, elderly men and women, Fed (N = 12)
[11] = both sexes, plasma, 10 mg, Part B, healthy elderly overall, arithmetic mean
[12] = female, plasma, 5 mg, Part B, healthy elderly women, arithmetic mean
[13] = female, plasma, 10 mg, Part B, healthy elderly women, arithmetic mean
[14] = male, plasma, 1 mg, Part A, healthy young men, 1 mg single dose, mean (CV %)
[15] = male, plasma, 5 mg, Part A, healthy young men, 5 mg single dose, mean (CV %)
[16] = male, plasma, 5 mg, Part B, healthy elderly men, arithmetic mean
[17] = male, plasma, 10 mg, Part A, healthy young men, 10 mg single dose, mean (CV %)
[18] = male, plasma, 10 mg, Part B, healthy elderly men, arithmetic mean
[19] = Part A, healthy young men, 1, 5 and 10 mg dose groups
[20] = Part B, healthy elderly, 5 and 10 mg dose groups
[21] = Part C, 5 mg on three occasions

## Cc1ccc(C(=O)Nc2nc(-c3ccco3)c(C(=O)C3CCOCC3)s2)cn1 [Compound 504]
[1]
  Ki: 103 ± 18.4 nM
[2]
  Ki: 33.8 ± 5.91 nM
[3]
  Ki: 0.113 ± 0.0046 nM
[4]
  Ki: 450 ± 51.1 nM
[5]
  Ki: 0.322 ± 0.0114 nM
[6]; Part B
  differences in exposure between men and women: no marked differences
[6]; Part B, healthy elderly men, 5 mg, arithmetic mean
  CL/F: 0.611 L/h
[6]; Part B, healthy elderly men, 10 mg, arithmetic mean
  CL/F: 0.908 L/h
[6]; Part B, healthy elderly overall, 5 mg, arithmetic mean
  CL/F: 0.597 L/h
[6]; Part B, healthy elderly overall, 10 mg, arithmetic mean
  CL/F: 0.844 L/h
[6]; Part B, healthy elderly women, 5 mg, arithmetic mean
  CL/F: 0.556 L/h
[6]; Part B, healthy elderly women, 10 mg, arithmetic mean
  CL/F: 0.780 L/h
[6]; Part C, 5 mg
  mean Cmax lower in the fed state than in the fasting state: approximately 23%
  overall exposure (AUC0-inf and AUC0-t) fed compared to fasting: not statistically significantly different
[6]; Part C, men
  intra-subject variability (CV %) for AUC0-inf: 27%
  intra-subject variability (CV %) for Cmax: 16%
[6]; Part C, women
  intra-subject variability (CV %) for AUC0-inf: 59%
  intra-subject variability (CV %) for Cmax: 23%
[6]; Parts A and B, post-dose
  time until which plasma concentration plateaued after Cmax: approximately 5 hours
[6]; both sexes, in vivo, Parts A and B, 1 to 10 mg, read-out: mean half-life (t1/2) across dose levels
  half-life: 19 to 25 h
[6]; both sexes, plasma, 5 mg, Part B, healthy elderly overall, 5 mg, arithmetic mean
  Vd/F: 16.9 L
[6]; both sexes, plasma, 5 mg, Part B, healthy elderly overall, 5 mg, arithmetic mean, read-out: t1/2 (converted)
  half-life: 22 h
[6]; both sexes, plasma, 5 mg, Part B, healthy elderly overall, 5 mg, median, read-out: tmax
  Tmax: 1 h
[6]; [8]
  AUC(0-inf): 9580 ng·h/mL
  Cmax: 388 ng/mL
[6]; both sexes, plasma, 5 mg, Part C, 5 mg, read-out: delay of median tmax in the fed state
  Tmax: 2 to 3 h
[6]; both sexes, plasma, 5 mg, Part C, elderly men and women, 5 mg, Fasting (N = 24), read-out: t1/2 (converted)
  half-life: 14.9 h
[6]; both sexes, plasma, 5 mg, Part C, elderly men and women, 5 mg, Fed (N = 11), read-out: t1/2 (converted)
  half-life: 15.8 h
[6]; [9]
  AUC(0-inf): 6310 ng·h/mL
  AUC(0-t): 5960 ng·h/mL
  Cmax: 348 ng/mL
[6]; both sexes, plasma, 5 mg, Part C, elderly men and women, Fed (N = 11)
  AUC(0-inf): 5960 ng·h/mL
[6]; [10]
  AUC(0-t): 5560 ng·h/mL
  Cmax: 269 ng/mL
[6]; both sexes, plasma, 10 mg, Part B, healthy elderly overall, 10 mg, arithmetic mean
  Vd/F: 20.6 L
[6]; both sexes, plasma, 10 mg, Part B, healthy elderly overall, 10 mg, arithmetic mean, read-out: t1/2 (converted)
  half-life: 20.2 h
[6]; both sexes, plasma, 10 mg, Part B, healthy elderly overall, 10 mg, median, read-out: tmax
  Tmax: 0.75 h
[6]; [11]
  AUC(0-inf): 14900 ng·h/mL
  Cmax: 717 ng/mL
[6]; both sexes, plasma, Parts A and B, each dose, post-dose, read-out: median tmax
  Tmax: 0.75 to 1.75 h
[6]; dose range 1 to 10 mg
  increase of exposure (AUC0-24 and Cmax) with dose: approximate dose-proportional manner
[6]; female, plasma, 5 mg, Part B, healthy elderly women, 5 mg, arithmetic mean
  Vd/F: 13.6 L
[6]; female, plasma, 5 mg, Part B, healthy elderly women, 5 mg, arithmetic mean, read-out: t1/2 (converted)
  half-life: 17.4 h
[6]; female, plasma, 5 mg, Part B, healthy elderly women, 5 mg, median, read-out: tmax
  Tmax: 1 h
[6]; [12]
  AUC(0-inf): 9550 ng·h/mL
  Cmax: 485 ng/mL
[6]; female, plasma, 10 mg, Part B, healthy elderly women, 10 mg, arithmetic mean
  Vd/F: 19.6 L
[6]; female, plasma, 10 mg, Part B, healthy elderly women, 10 mg, arithmetic mean, read-out: t1/2 (converted)
  half-life: 18.8 h
[6]; female, plasma, 10 mg, Part B, healthy elderly women, 10 mg, median, read-out: tmax
  Tmax: 0.75 h
[6]; [13]
  AUC(0-inf): 14100 ng·h/mL
  Cmax: 781 ng/mL
[6]; in vivo
  differences in pharmacokinetic profile between healthy young and elderly subjects: no apparent differences
[6]; [14]
  AUC(0-inf): 2660 ng·h/mL
  Cmax: 82.7 ng/mL
  Vd/F: 13.4 L
[6]; male, plasma, 1 mg, Part A, healthy young men, 1 mg single dose, mean (CV %), read-out: t1/2 (converted)
  half-life: 24.3 h
[6]; male, plasma, 1 mg, Part A, healthy young men, 1 mg single dose, median (min, max), read-out: tmax
  Tmax: 1.25 h
[6]; [15]
  AUC(0-inf): 12600 ng·h/mL
  Cmax: 423 ng/mL
  Vd/F: 14.8 L
[6]; male, plasma, 5 mg, Part A, healthy young men, 5 mg single dose, mean (CV %), read-out: t1/2 (converted)
  half-life: 25 h
[6]; male, plasma, 5 mg, Part A, healthy young men, 5 mg single dose, median (min, max), read-out: tmax
  Tmax: 1.75 h
[6]; male, plasma, 5 mg, Part B, healthy elderly men, 5 mg, arithmetic mean
  Vd/F: 18 L
[6]; male, plasma, 5 mg, Part B, healthy elderly men, 5 mg, arithmetic mean, read-out: t1/2 (converted)
  half-life: 23.5 h
[6]; male, plasma, 5 mg, Part B, healthy elderly men, 5 mg, median, read-out: tmax
  Tmax: 1 h
[6]; [16]
  AUC(0-inf): 9590 ng·h/mL
  Cmax: 356 ng/mL
[6]; [17]
  AUC(0-inf): 18100 ng·h/mL
  Cmax: 787 ng/mL
  Vd/F: 15.3 L
[6]; male, plasma, 10 mg, Part A, healthy young men, 10 mg single dose, mean (CV %), read-out: t1/2 (converted)
  half-life: 19.3 h
[6]; male, plasma, 10 mg, Part A, healthy young men, 10 mg single dose, median (min, max), read-out: tmax
  Tmax: 1 h
[6]; male, plasma, 10 mg, Part B, healthy elderly men, 10 mg, arithmetic mean
  Vd/F: 21.6 L
[6]; male, plasma, 10 mg, Part B, healthy elderly men, 10 mg, arithmetic mean, read-out: t1/2 (converted)
  half-life: 21.6 h
[6]; male, plasma, 10 mg, Part B, healthy elderly men, 10 mg, median, read-out: tmax
  Tmax: 0.75 h
[6]; [18]
  AUC(0-inf): 15700 ng·h/mL
  Cmax: 652 ng/mL
[7]; Part A, 1 mg group
  insomnia: not reported
[7]; Part A, 5 mg group (N=6)
  subjects reporting insomnia: 4 subjects
[7]; Part A, 10 mg group (N=5)
  subjects reporting insomnia: 5 subjects
[7]; [19]
  number of AEs: 36
  subjects with AEs: 13 of the 17
[7]; Part B, 10 mg group
  number of severe adverse events: 5
  subjects with severe adverse events: Three
[7]; Part B, elderly subjects
  dose considered to approach the maximum tolerated dose: ~10 mg
[7]; [20]
  number of AEs: 53
  subjects with AEs: 16 of the 21
[7]; Part C
  events of mild insomnia: 12
  events of moderate insomnia: 2
  number of moderate AEs: 15
  number of severe AEs: 3
[7]; [21]
  number of AEs: 90
  subjects with AEs: 11 of the 12
[7]; Part C, 5 mg single doses, fed and fasting states
  safety and tolerability: safe and tolerated
[7]; single dose, insomnia limiting
  maximal tolerated dosage: 10 mg
